Species on record: Rattus norvegicus
Assay: Open TG-GATES - Regimen: Daily Repeat
Type: toxicity, organism-based, Sprague-Dawley
Design: regimen Daily Repeat, gender Male, age 6 weeks
Conditions: in vivo, po, route gavage; for APTT / Bas / Eos / Fbg / Hb / Ht / Lym / MCH / MCHC / MCV / Mono / Neu / PT / Plat / RBC / Ret / WBC: tissue Blood; for KIDNEY_L / KIDNEY_R / KIDNEY_TOTAL: tissue Kidney; for LIVER: tissue Liver; for A/G / ALP / ALT / AST / BUN / CRE / Ca / Cl / DBIL / GLC / IP / K / LDH / Na / PL / RALB / TBIL / TC / TG / TP / gamma-GTP: tissue Plasma
[1] = 60 mg/kg, 72 h, dose level Middle, time 3 day
[2] = 60 mg/kg, […], dose level Middle, time 7 day
[3] = 60 mg/kg, […], dose level Middle, time 14 day
[4] = 60 mg/kg, […], dose level Middle, time 28 day
[5] = 200 mg/kg, 72 h, dose level High, time 3 day
[6] = 200 mg/kg, […], dose level High, time 7 day
[7] = 200 mg/kg, […], dose level High, time 14 day
[8] = 200 mg/kg, […], dose level High, time 28 day

CC(CN1c2ccccc2Sc2ccccc21)N(C)C (centres undefined) [PROMETHAZINE]
TERMINAL_BW [1]: 228.9 g
APTT [1]: 22.4 s
Bas [1]: 0%
Eos [1]: 0.8%
Fbg [1]: 300.8 mg/dL
Hb [1]: 13.3 g/dL
Ht [1]: 40.1%
Lym [1]: 78.8%
MCH [1]: 20.8 pg
MCHC [1]: 33.1%
MCV [1]: 62.8 fL
Mono [1]: 2.4%
Neu [1]: 17%
PT [1]: 16.1 s
Plat [1]: 121.6 x10_4/uL
RBC [1]: 639.4 x10_4/ul
Ret [1]: 6.1%
WBC [1]: 113.7 x10_2/uL
KIDNEY_L [1]: 1 g
KIDNEY_R [1]: 1 g
KIDNEY_TOTAL [1]: 2 g
LIVER [1]: 11.7 g
A/G [1]: 1.3
ALP [1]: 1638.6 IU/L
ALT [1]: 45.8 IU/L
AST [1]: 74.6 IU/L
BUN [1]: 16.8 mg/dL
CRE [1]: 0.2 mg/dL
Ca [1]: 10.9 mg/dL
Cl [1]: 106.6 meq/L
DBIL [1]: 0.002 mg/dL
GLC [1]: 184.8 mg/dL
IP [1]: 7 mg/dL
K [1]: 4.3 meq/L
LDH [1]: 158.2 IU/L
Na [1]: 142 meq/L
PL [1]: 140.8 mg/dL
RALB [1]: 3.1 g/dL
TBIL [1]: 0.008 mg/dL
TC [1]: 73.2 mg/dL
TG [1]: 122.8 mg/dL
TP [1]: 5.5 g/dL
gamma-GTP [1]: 1.4 IU/L
TERMINAL_BW [2]: 255.8 g
TERMINAL_BW [3]: 294.2 g
TERMINAL_BW [4]: 366.5 g
APTT [2]: 23.8 s
Bas [2]: 0%
Eos [2]: 0.8%
Fbg [2]: 293.6 mg/dL
Hb [2]: 13.6 g/dL
Ht [2]: 41.2%
Lym [2]: 80.4%
MCH [2]: 20.2 pg
MCHC [2]: 33.1%
MCV [2]: 61.1 fL
Mono [2]: 2.8%
Neu [2]: 15.2%
PT [2]: 15.8 s
Plat [2]: 107.7 x10_4/uL
RBC [2]: 674.2 x10_4/ul
Ret [2]: 5.1%
WBC [2]: 158 x10_2/uL
APTT [3]: 25 s
Bas [3]: 0%
Eos [3]: 1%
Fbg [3]: 312.6 mg/dL
Hb [3]: 14.2 g/dL
Ht [3]: 41.7%
Lym [3]: 77.8%
MCH [3]: 20.1 pg
MCHC [3]: 34%
MCV [3]: 59.1 fL
Mono [3]: 2%
Neu [3]: 18.4%
PT [3]: 15.6 s
Plat [3]: 111.3 x10_4/uL
RBC [3]: 706.4 x10_4/ul
Ret [3]: 4.8%
WBC [3]: 120.7 x10_2/uL
APTT [4]: 25.7 s
Bas [4]: 0%
Eos [4]: 1%
Fbg [4]: 303.6 mg/dL
Hb [4]: 15.3 g/dL
Ht [4]: 43.8%
Lym [4]: 79.2%
MCH [4]: 19.6 pg
MCHC [4]: 34.9%
MCV [4]: 56.4 fL
Mono [4]: 1.8%
Neu [4]: 17.2%
PT [4]: 16.3 s
Plat [4]: 96 x10_4/uL
RBC [4]: 778.4 x10_4/ul
Ret [4]: 2.9%
WBC [4]: 96 x10_2/uL
KIDNEY_L [2]: 1.1 g
KIDNEY_R [2]: 1.1 g
KIDNEY_TOTAL [2]: 2.2 g
KIDNEY_L [3]: 1.2 g
KIDNEY_R [3]: 1.2 g
KIDNEY_TOTAL [3]: 2.4 g
KIDNEY_L [4]: 1.4 g
KIDNEY_R [4]: 1.4 g
KIDNEY_TOTAL [4]: 2.8 g
LIVER [2]: 13.5 g
LIVER [3]: 14.9 g
LIVER [4]: 17.3 g
A/G [2]: 1.2
ALP [2]: 1458.6 IU/L
ALT [2]: 44 IU/L
AST [2]: 71 IU/L
BUN [2]: 20.6 mg/dL
CRE [2]: 0.2 mg/dL
Ca [2]: 10.7 mg/dL
Cl [2]: 106.2 meq/L
DBIL [2]: 0 mg/dL
GLC [2]: 181.2 mg/dL
IP [2]: 7 mg/dL
K [2]: 4.4 meq/L
LDH [2]: 143.4 IU/L
Na [2]: 141.8 meq/L
PL [2]: 144.4 mg/dL
RALB [2]: 3 g/dL
TBIL [2]: 0.006 mg/dL
TC [2]: 75.4 mg/dL
TG [2]: 106.2 mg/dL
TP [2]: 5.6 g/dL
gamma-GTP [2]: 2.2 IU/L
A/G [3]: 1.2
ALP [3]: 1448 IU/L
ALT [3]: 46.6 IU/L
AST [3]: 72.2 IU/L
BUN [3]: 19 mg/dL
CRE [3]: 0.2 mg/dL
Ca [3]: 10.9 mg/dL
Cl [3]: 106 meq/L
DBIL [3]: 0 mg/dL
GLC [3]: 182.2 mg/dL
IP [3]: 6.9 mg/dL
K [3]: 4.1 meq/L
LDH [3]: 128.4 IU/L
Na [3]: 142.4 meq/L
PL [3]: 150.4 mg/dL
RALB [3]: 3.2 g/dL
TBIL [3]: 0.012 mg/dL
TC [3]: 76 mg/dL
TG [3]: 128.4 mg/dL
TP [3]: 5.9 g/dL
gamma-GTP [3]: 2.4 IU/L
A/G [4]: 1.1
ALP [4]: 1017.8 IU/L
ALT [4]: 49.4 IU/L
AST [4]: 69 IU/L
BUN [4]: 18.8 mg/dL
CRE [4]: 0.2 mg/dL
Ca [4]: 10.8 mg/dL
Cl [4]: 104 meq/L
DBIL [4]: 0 mg/dL
GLC [4]: 185.6 mg/dL
IP [4]: 7 mg/dL
K [4]: 3.7 meq/L
LDH [4]: 158 IU/L
Na [4]: 143.2 meq/L
PL [4]: 152.4 mg/dL
RALB [4]: 3.3 g/dL
TBIL [4]: 0.026 mg/dL
TC [4]: 79 mg/dL
TG [4]: 105.2 mg/dL
TP [4]: 6.3 g/dL
gamma-GTP [4]: 2.2 IU/L
TERMINAL_BW [5]: 194.8 g
APTT [5]: 23.9 s
Bas [5]: 0%
Eos [5]: 0.8%
Fbg [5]: 333.2 mg/dL
Hb [5]: 15 g/dL
Ht [5]: 44.4%
Lym [5]: 74.6%
MCH [5]: 20.7 pg
MCHC [5]: 33.7%
MCV [5]: 61.6 fL
Mono [5]: 2.8%
Neu [5]: 21%
PT [5]: 16.6 s
Plat [5]: 130.8 x10_4/uL
RBC [5]: 722.2 x10_4/ul
Ret [5]: 4.2%
WBC [5]: 73 x10_2/uL
KIDNEY_L [5]: 0.9 g
KIDNEY_R [5]: 0.9 g
KIDNEY_TOTAL [5]: 1.8 g
LIVER [5]: 10 g
A/G [5]: 1.3
ALP [5]: 1369.6 IU/L
ALT [5]: 46.8 IU/L
AST [5]: 69.2 IU/L
BUN [5]: 14.8 mg/dL
CRE [5]: 0.2 mg/dL
Ca [5]: 10.2 mg/dL
Cl [5]: 107.2 meq/L
DBIL [5]: 0.08 mg/dL
GLC [5]: 174.6 mg/dL
IP [5]: 8.3 mg/dL
K [5]: 4.3 meq/L
LDH [5]: 204.6 IU/L
Na [5]: 142.4 meq/L
PL [5]: 159.4 mg/dL
RALB [5]: 3.2 g/dL
TBIL [5]: 0.024 mg/dL
TC [5]: 98.6 mg/dL
TG [5]: 75.6 mg/dL
TP [5]: 5.8 g/dL
gamma-GTP [5]: 1.4 IU/L
TERMINAL_BW [6]: 231 g
TERMINAL_BW [7]: 258.5 g
TERMINAL_BW [8]: 339.7 g
APTT [6]: 23.3 s
Bas [6]: 0%
Eos [6]: 1%
Fbg [6]: 306.2 mg/dL
Hb [6]: 14.1 g/dL
Ht [6]: 42.2%
Lym [6]: 76.4%
MCH [6]: 19.7 pg
MCHC [6]: 33.4%
MCV [6]: 59.1 fL
Mono [6]: 3.2%
Neu [6]: 18.6%
PT [6]: 15.9 s
Plat [6]: 115.2 x10_4/uL
RBC [6]: 714.2 x10_4/ul
Ret [6]: 3.9%
WBC [6]: 129.8 x10_2/uL
APTT [7]: 22.6 s
Bas [7]: 0%
Eos [7]: 1%
Fbg [7]: 369.4 mg/dL
Hb [7]: 15 g/dL
Ht [7]: 43.8%
Lym [7]: 70.4%
MCH [7]: 19.7 pg
MCHC [7]: 34.2%
MCV [7]: 57.4 fL
Mono [7]: 3.2%
Neu [7]: 24.6%
PT [7]: 16.1 s
Plat [7]: 120.6 x10_4/uL
RBC [7]: 763.2 x10_4/ul
Ret [7]: 4%
WBC [7]: 105 x10_2/uL
APTT [8]: 23.6 s
Bas [8]: 0%
Eos [8]: 1%
Fbg [8]: 316.4 mg/dL
Hb [8]: 15.3 g/dL
Ht [8]: 43.5%
Lym [8]: 71.6%
MCH [8]: 19.3 pg
MCHC [8]: 35.1%
MCV [8]: 55.1 fL
Mono [8]: 3%
Neu [8]: 23.4%
PT [8]: 16.4 s
Plat [8]: 108 x10_4/uL
RBC [8]: 791.6 x10_4/ul
Ret [8]: 3.3%
WBC [8]: 135.4 x10_2/uL
KIDNEY_L [6]: 1 g
KIDNEY_R [6]: 1.1 g
KIDNEY_TOTAL [6]: 2.1 g
KIDNEY_L [7]: 1.1 g
KIDNEY_R [7]: 1.1 g
KIDNEY_TOTAL [7]: 2.2 g
KIDNEY_L [8]: 1.3 g
KIDNEY_R [8]: 1.3 g
KIDNEY_TOTAL [8]: 2.6 g
LIVER [6]: 14.7 g
LIVER [7]: 15.1 g
LIVER [8]: 21.1 g
A/G [6]: 1.1
ALP [6]: 1435.2 IU/L
ALT [6]: 56.4 IU/L
AST [6]: 75.4 IU/L
BUN [6]: 19.6 mg/dL
CRE [6]: 0.2 mg/dL
Ca [6]: 10.9 mg/dL
Cl [6]: 104.8 meq/L
DBIL [6]: 0.004 mg/dL
GLC [6]: 179.4 mg/dL
IP [6]: 7.8 mg/dL
K [6]: 4.5 meq/L
LDH [6]: 167.8 IU/L
Na [6]: 142 meq/L
PL [6]: 170.6 mg/dL
RALB [6]: 3 g/dL
TBIL [6]: 0.008 mg/dL
TC [6]: 84.8 mg/dL
TG [6]: 127 mg/dL
TP [6]: 5.7 g/dL
gamma-GTP [6]: 2.8 IU/L
A/G [7]: 1
ALP [7]: 1417 IU/L
ALT [7]: 53.6 IU/L
AST [7]: 73.8 IU/L
BUN [7]: 20.6 mg/dL
CRE [7]: 0.2 mg/dL
Ca [7]: 11 mg/dL
Cl [7]: 103.2 meq/L
DBIL [7]: 0.014 mg/dL
GLC [7]: 184.6 mg/dL
IP [7]: 8 mg/dL
K [7]: 4.2 meq/L
LDH [7]: 249 IU/L
Na [7]: 143.4 meq/L
PL [7]: 182.4 mg/dL
RALB [7]: 3.1 g/dL
TBIL [7]: 0.018 mg/dL
TC [7]: 99 mg/dL
TG [7]: 117.2 mg/dL
TP [7]: 6.1 g/dL
gamma-GTP [7]: 3.4 IU/L
A/G [8]: 1
ALP [8]: 1191.4 IU/L
ALT [8]: 54.6 IU/L
AST [8]: 66 IU/L
BUN [8]: 21.2 mg/dL
CRE [8]: 0.2 mg/dL
Ca [8]: 10.8 mg/dL
Cl [8]: 104.2 meq/L
DBIL [8]: 0.008 mg/dL
GLC [8]: 175.2 mg/dL
IP [8]: 6.8 mg/dL
K [8]: 4.1 meq/L
LDH [8]: 146 IU/L
Na [8]: 142.8 meq/L
PL [8]: 211.4 mg/dL
RALB [8]: 3.2 g/dL
TBIL [8]: 0.02 mg/dL
TC [8]: 116.8 mg/dL
TG [8]: 136.6 mg/dL
TP [8]: 6.3 g/dL
gamma-GTP [8]: 4.2 IU/L

From ChEMBL document CHEMBL3885861, “Open TG-GATES”
